Source: the supplement of paper PMC13380429

Assays:
Conditions in all cases: 72 h
Caco-2 [1] = experiment: drug sensitivity score (DSS) for viability; higher = more toxic; extreme values may be limits of the assay
Vero E6 [2] = experiment: as above
Calu-3 [3] = experiment: as above
U2OS [4] = experiment: as above
HepG2 [5] = experiment: as above
Caco-2 [6] = experiment: relative viability EC50 (midpoint between 100% and the lowest measured viability); higher = less toxic
Vero E6 [7] = experiment: as above
Calu-3 [8] = experiment: as above
U2OS [9] = experiment: as above
HepG2 [10] = experiment: as above
Caco-2 [11] = experiment: cell viability relative to DMSO; higher = less toxic
Vero E6 [12] = experiment: as above
Calu-3 [13] = experiment: as above
U2OS [14] = experiment: as above
HepG2 [15] = experiment: as above

COC(=O)N/N=C/c1c[n+]([O-])c2ccccc2[n+]1[O-] [carbadox]
drug sensitivity score (Caco-2 [1]): 0
drug sensitivity score (Vero E6 [2]): 0
drug sensitivity score (Calu-3 [3]): 0
drug sensitivity score (U2OS [4]): 0
drug sensitivity score (HepG2 [5]): 0
relative viability EC50 (Caco-2 [6]): > 10 µM
relative viability EC50 (Vero E6 [7]): > 10 µM
relative viability EC50 (Calu-3 [8]): > 10 µM
relative viability EC50 (U2OS [9]): > 10 µM
relative viability EC50 (HepG2 [10]): > 10 µM
cell viability (Caco-2 [11]; 1 nM): 90.4%
cell viability (Caco-2 [11]; 10 nM): 81.8%
cell viability (Caco-2 [11]; 100 nM): 92.9%
cell viability (Caco-2 [11]; 1000 nM): 92.1%
cell viability (Caco-2 [11]; 10000 nM): 88.4%
cell viability (Vero E6 [12]; 1 nM): 93.7%
cell viability (Vero E6 [12]; 10 nM): 95.8%
cell viability (Vero E6 [12]; 100 nM): 88.9%
cell viability (Vero E6 [12]; 1000 nM): 92.6%
cell viability (Vero E6 [12]; 10000 nM): 111%
cell viability (Calu-3 [13]; 1 nM): 93.8%
cell viability (Calu-3 [13]; 10 nM): 84.8%
cell viability (Calu-3 [13]; 100 nM): 95.7%
cell viability (Calu-3 [13]; 1000 nM): 105%
cell viability (Calu-3 [13]; 10000 nM): 93.2%
cell viability (U2OS [14]; 1 nM): 99.5%
cell viability (U2OS [14]; 10 nM): 97.4%
cell viability (U2OS [14]; 100 nM): 99.2%
cell viability (U2OS [14]; 1000 nM): 91.7%
cell viability (U2OS [14]; 10000 nM): 98.2%
cell viability (HepG2 [15]; 1 nM): 110%
cell viability (HepG2 [15]; 10 nM): 95.4%
cell viability (HepG2 [15]; 100 nM): 96.1%
cell viability (HepG2 [15]; 1000 nM): 105%
cell viability (HepG2 [15]; 10000 nM): 110%

O=C(O)c1ccc2[nH]cc(CCCCN3CC=C(c4ccccc4)CC3)c2c1 [carmoxirole]
drug sensitivity score (Caco-2 [1]): 0
drug sensitivity score (Vero E6 [2]): 0
drug sensitivity score (Calu-3 [3]): 0
drug sensitivity score (U2OS [4]): 0
drug sensitivity score (HepG2 [5]): 0
relative viability EC50 (Caco-2 [6]): > 10 µM
relative viability EC50 (Vero E6 [7]): > 10 µM
relative viability EC50 (Calu-3 [8]): > 10 µM
relative viability EC50 (U2OS [9]): > 10 µM
relative viability EC50 (HepG2 [10]): > 10 µM
cell viability (Caco-2 [11]; 1 nM): 106%
cell viability (Caco-2 [11]; 10 nM): 107%
cell viability (Caco-2 [11]; 100 nM): 103%
cell viability (Caco-2 [11]; 1000 nM): 91.2%
cell viability (Caco-2 [11]; 10000 nM): 105%
cell viability (Vero E6 [12]; 1 nM): 99.2%
cell viability (Vero E6 [12]; 10 nM): 100%
cell viability (Vero E6 [12]; 100 nM): 93.6%
cell viability (Vero E6 [12]; 1000 nM): 102%
cell viability (Vero E6 [12]; 10000 nM): 95.8%
cell viability (Calu-3 [13]; 1 nM): 98.7%
cell viability (Calu-3 [13]; 10 nM): 112%
cell viability (Calu-3 [13]; 100 nM): 92.4%
cell viability (Calu-3 [13]; 1000 nM): 96%
cell viability (Calu-3 [13]; 10000 nM): 90.8%
cell viability (U2OS [14]; 1 nM): 103%
cell viability (U2OS [14]; 10 nM): 99%
cell viability (U2OS [14]; 100 nM): 96.9%
cell viability (U2OS [14]; 1000 nM): 100%
cell viability (U2OS [14]; 10000 nM): 101%
cell viability (HepG2 [15]; 1 nM): 98.4%
cell viability (HepG2 [15]; 10 nM): 93%
cell viability (HepG2 [15]; 100 nM): 86.7%
cell viability (HepG2 [15]; 1000 nM): 100%
cell viability (HepG2 [15]; 10000 nM): 88.3%

CO/N=C(\C(=O)N[C@@H]1C(=O)N2C(C(=O)O)=C(CSc3nc(C)c(CC(=O)O)s3)CS[C@H]12)c1csc(N)n1 [cefodizime]
drug sensitivity score (Caco-2 [1]): 0
drug sensitivity score (Vero E6 [2]): 0
drug sensitivity score (Calu-3 [3]): 0
drug sensitivity score (U2OS [4]): 0
drug sensitivity score (HepG2 [5]): 0
relative viability EC50 (Caco-2 [6]): > 10 µM
relative viability EC50 (Vero E6 [7]): > 10 µM
relative viability EC50 (Calu-3 [8]): > 10 µM
relative viability EC50 (U2OS [9]): > 10 µM
relative viability EC50 (HepG2 [10]): > 10 µM
cell viability (Caco-2 [11]; 1 nM): 89.2%
cell viability (Caco-2 [11]; 10 nM): 89.8%
cell viability (Caco-2 [11]; 100 nM): 105%
cell viability (Caco-2 [11]; 1000 nM): 100%
cell viability (Caco-2 [11]; 10000 nM): 89.3%
cell viability (Vero E6 [12]; 1 nM): 93.3%
cell viability (Vero E6 [12]; 10 nM): 95.8%
cell viability (Vero E6 [12]; 100 nM): 89.4%
cell viability (Vero E6 [12]; 1000 nM): 99.6%
cell viability (Vero E6 [12]; 10000 nM): 106%
cell viability (Calu-3 [13]; 1 nM): 98.9%
cell viability (Calu-3 [13]; 10 nM): 93.5%
cell viability (Calu-3 [13]; 100 nM): 89.3%
cell viability (Calu-3 [13]; 1000 nM): 86.3%
cell viability (Calu-3 [13]; 10000 nM): 96.8%
cell viability (U2OS [14]; 1 nM): 96.1%
cell viability (U2OS [14]; 10 nM): 95.5%
cell viability (U2OS [14]; 100 nM): 99.4%
cell viability (U2OS [14]; 1000 nM): 97.7%
cell viability (U2OS [14]; 10000 nM): 98.9%
cell viability (HepG2 [15]; 1 nM): 88.6%
cell viability (HepG2 [15]; 10 nM): 105%
cell viability (HepG2 [15]; 100 nM): 98.8%
cell viability (HepG2 [15]; 1000 nM): 97.3%
cell viability (HepG2 [15]; 10000 nM): 103%

CCS(=O)(=O)N(C)[C@H]1c2cc(C#N)ccc2OC(C)(C)[C@@H]1O [chromanol-293B-(-)-[3R,4S]]
drug sensitivity score (Caco-2 [1]): 0
drug sensitivity score (Vero E6 [2]): 0
drug sensitivity score (Calu-3 [3]): 0
drug sensitivity score (U2OS [4]): 0
drug sensitivity score (HepG2 [5]): 0
relative viability EC50 (Caco-2 [6]): > 10 µM
relative viability EC50 (Vero E6 [7]): > 10 µM
relative viability EC50 (Calu-3 [8]): > 10 µM
relative viability EC50 (U2OS [9]): > 10 µM
relative viability EC50 (HepG2 [10]): > 10 µM
cell viability (Caco-2 [11]; 1 nM): 94.3%
cell viability (Caco-2 [11]; 10 nM): 93.2%
cell viability (Caco-2 [11]; 100 nM): 90.4%
cell viability (Caco-2 [11]; 1000 nM): 93.3%
cell viability (Caco-2 [11]; 10000 nM): 88.9%
cell viability (Vero E6 [12]; 1 nM): 96.6%
cell viability (Vero E6 [12]; 10 nM): 107%
cell viability (Vero E6 [12]; 100 nM): 98.2%
cell viability (Vero E6 [12]; 1000 nM): 92.5%
cell viability (Vero E6 [12]; 10000 nM): 110%
cell viability (Calu-3 [13]; 1 nM): 105%
cell viability (Calu-3 [13]; 10 nM): 99.2%
cell viability (Calu-3 [13]; 100 nM): 95.5%
cell viability (Calu-3 [13]; 1000 nM): 106%
cell viability (Calu-3 [13]; 10000 nM): 90.6%
cell viability (U2OS [14]; 1 nM): 93%
cell viability (U2OS [14]; 10 nM): 93.8%
cell viability (U2OS [14]; 100 nM): 99.1%
cell viability (U2OS [14]; 1000 nM): 94.3%
cell viability (U2OS [14]; 10000 nM): 95.2%
cell viability (HepG2 [15]; 1 nM): 104%
cell viability (HepG2 [15]; 10 nM): 102%
cell viability (HepG2 [15]; 100 nM): 91.6%
cell viability (HepG2 [15]; 1000 nM): 103%
cell viability (HepG2 [15]; 10000 nM): 98.7%

CC1(COc2ccc(CC3SC(=O)NC3=O)cc2)CCCCC1 (stereo not given) [ciglitazone]
drug sensitivity score (Caco-2 [1]): 0
drug sensitivity score (Vero E6 [2]): 0
drug sensitivity score (Calu-3 [3]): 0
drug sensitivity score (U2OS [4]): 0
drug sensitivity score (HepG2 [5]): 0
relative viability EC50 (Caco-2 [6]): > 10 µM
relative viability EC50 (Vero E6 [7]): > 10 µM
relative viability EC50 (Calu-3 [8]): > 10 µM
relative viability EC50 (U2OS [9]): > 10 µM
relative viability EC50 (HepG2 [10]): > 10 µM
cell viability (Caco-2 [11]; 1 nM): 98.7%
cell viability (Caco-2 [11]; 10 nM): 99.2%
cell viability (Caco-2 [11]; 100 nM): 99.1%
cell viability (Caco-2 [11]; 1000 nM): 92.9%
cell viability (Caco-2 [11]; 10000 nM): 95.2%
cell viability (Vero E6 [12]; 1 nM): 94.6%
cell viability (Vero E6 [12]; 10 nM): 97%
cell viability (Vero E6 [12]; 100 nM): 92.7%
cell viability (Vero E6 [12]; 1000 nM): 94.1%
cell viability (Vero E6 [12]; 10000 nM): 96.5%
cell viability (Calu-3 [13]; 1 nM): 104%
cell viability (Calu-3 [13]; 10 nM): 98.4%
cell viability (Calu-3 [13]; 100 nM): 92.9%
cell viability (Calu-3 [13]; 1000 nM): 98%
cell viability (Calu-3 [13]; 10000 nM): 102%
cell viability (U2OS [14]; 1 nM): 95.3%
cell viability (U2OS [14]; 10 nM): 99.8%
cell viability (U2OS [14]; 100 nM): 102%
cell viability (U2OS [14]; 1000 nM): 100%
cell viability (U2OS [14]; 10000 nM): 100%
cell viability (HepG2 [15]; 1 nM): 101%
cell viability (HepG2 [15]; 10 nM): 99.8%
cell viability (HepG2 [15]; 100 nM): 98.2%
cell viability (HepG2 [15]; 1000 nM): 108%
cell viability (HepG2 [15]; 10000 nM): 105%

O=C(/C=C/c1cccc(F)c1)NC1CC1 [cinflumide]
drug sensitivity score (Caco-2 [1]): 0
drug sensitivity score (Vero E6 [2]): 0
drug sensitivity score (Calu-3 [3]): 0
drug sensitivity score (U2OS [4]): 0
drug sensitivity score (HepG2 [5]): 0.5
relative viability EC50 (Caco-2 [6]): > 10 µM
relative viability EC50 (Vero E6 [7]): > 10 µM
relative viability EC50 (Calu-3 [8]): > 10 µM
relative viability EC50 (U2OS [9]): > 10 µM
relative viability EC50 (HepG2 [10]): > 10 µM
cell viability (Caco-2 [11]; 1 nM): 104%
cell viability (Caco-2 [11]; 10 nM): 99.9%
cell viability (Caco-2 [11]; 100 nM): 95.5%
cell viability (Caco-2 [11]; 1000 nM): 99.3%
cell viability (Caco-2 [11]; 10000 nM): 98.1%
cell viability (Vero E6 [12]; 1 nM): 101%
cell viability (Vero E6 [12]; 10 nM): 98.7%
cell viability (Vero E6 [12]; 100 nM): 106%
cell viability (Vero E6 [12]; 1000 nM): 102%
cell viability (Vero E6 [12]; 10000 nM): 91.8%
cell viability (Calu-3 [13]; 1 nM): 96.8%
cell viability (Calu-3 [13]; 10 nM): 91.7%
cell viability (Calu-3 [13]; 100 nM): 102%
cell viability (Calu-3 [13]; 1000 nM): 99.9%
cell viability (Calu-3 [13]; 10000 nM): 96.4%
cell viability (U2OS [14]; 1 nM): 98.9%
cell viability (U2OS [14]; 10 nM): 101%
cell viability (U2OS [14]; 100 nM): 91.5%
cell viability (U2OS [14]; 1000 nM): 98%
cell viability (U2OS [14]; 10000 nM): 99.8%
cell viability (HepG2 [15]; 1 nM): 92.8%
cell viability (HepG2 [15]; 10 nM): 101%
cell viability (HepG2 [15]; 100 nM): 101%
cell viability (HepG2 [15]; 1000 nM): 97.7%
cell viability (HepG2 [15]; 10000 nM): 84.8%
